Experimental data reported in the NIST ThermoML archive (doi:10.1021/je800463k).

Assay: mn = molality of the nth substance listed, in mol/kg
Conditions: 101 kPa, Liquid; for mass density: Pycnometric method; for electrical conductivity: Frequency=0.001 MHz, Alternating current cell with electrodes; for speed of sound: Frequency=2 MHz

CC(=O)[O-].CC(=O)[O-].[Mg+2] [magnesium acetate] + CO
Conditions	electrical conductivity [S/m]	mass density [kg/m3]	speed of sound [m/s]	viscosity [mPa·s]
299.65 K, m1 = 0.2422	–	803.36	–	–
300.15 K, m1 = 0.2003	–	800.18	–	–
300.2 K, m1 = 0.1402	–	796.94	–	–
300.25 K, m1 = 0.0646	–	791.69	–	–
300.35 K, m1 = 0.053	–	789.91	–	–
300.8 K, m1 = 0.0339	–	788.95	–	–
300.8 K, m1 = 0.3042	–	804.76	–	–
300.85 K, m1 = 0.014	–	787.26	–	–
300.85 K, m1 = 0.2668	–	803.07	–	–
301.1 K, m1 = 0.1112	–	794.25	–	–
301.5 K, m1 = 0.2422	–	801.62	–	–
301.9 K, m1 = 0.2003	–	798.5	–	–
301.9 K, m1 = 0.2192	–	799.27	–	–
301.95 K, m1 = 0.1798	–	798.03	–	–
302.05 K, m1 = 0.0646	–	790	–	–
302.15 K, m1 = 0.053	–	788.23	–	–
302.2 K, m1 = 0.0093	–	785.05	–	–
302.35 K, m1 = 0.0059	–	784.31	–	–
302.55 K, m1 = 0.3042	–	803.02	–	–
302.8 K, m1 = 0.2668	–	801.25	–	–
302.85 K, m1 = 0.1455	–	794.77	–	–
302.9 K, m1 = 0.1402	–	794.38	–	–
303.05 K, m1 = 0.0855	–	789.45	–	–
303.15 K, m1 = 0.0059	0.0362	783.47	1086.1	–
303.15 K, m1 = 0.0093	0.0586	–	1085.4	–
303.15 K, m1 = 0.014	–	–	–	0.5207
303.15 K, m1 = 0.018	0.0665	–	1086.1	0.5223
303.15 K, m1 = 0.0339	0.0868	–	–	0.5306
303.15 K, m1 = 0.053	0.1018	–	1087.5	–
303.15 K, m1 = 0.0646	0.1103	–	–	0.5393
303.15 K, m1 = 0.0855	0.122	–	1090.3	–
303.15 K, m1 = 0.1012	–	–	–	0.5622
303.15 K, m1 = 0.1024	0.1302	–	1093.3	–
303.15 K, m1 = 0.13	–	–	–	0.5718
303.15 K, m1 = 0.1402	0.1487	–	1092.4	0.5779
303.15 K, m1 = 0.1455	0.1524	–	1091.9	–
303.15 K, m1 = 0.17	–	–	–	0.5933
303.15 K, m1 = 0.1837	0.1617	–	1094.3	–
303.15 K, m1 = 0.2003	–	–	–	0.6048
303.15 K, m1 = 0.2192	–	–	1097.7	–
303.15 K, m1 = 0.2422	0.1746	–	1095.1	0.6232
303.15 K, m1 = 0.2453	–	–	–	0.6232
303.15 K, m1 = 0.2889	0.181	–	1098.2	0.642
303.15 K, m1 = 0.3042	–	–	1099.8	–
303.25 K, m1 = 0.2422	–	799.9	–	–
303.45 K, m1 = 0.0339	–	786.42	–	–
303.5 K, m1 = 0.014	–	784.74	–	–
303.65 K, m1 = 0.2192	–	797.61	–	–
303.75 K, m1 = 0.1112	–	791.73	–	–
303.95 K, m1 = 0.053	–	786.54	–	–
304.35 K, m1 = 0.3042	–	801.29	–	–
304.6 K, m1 = 0.1402	–	792.72	–	–
304.6 K, m1 = 0.1798	–	795.47	–	–
304.6 K, m1 = 0.2003	–	795.91	–	–
304.65 K, m1 = 0.0646	–	787.5	–	–
304.75 K, m1 = 0.0855	–	787.76	–	–
304.85 K, m1 = 0.2668	–	799.19	–	–
304.9 K, m1 = 0.0093	–	782.5	–	–
304.95 K, m1 = 0.0059	–	781.79	–	–
305.3 K, m1 = 0.014	–	783.09	–	–
305.5 K, m1 = 0.1455	–	792.24	–	–
305.65 K, m1 = 0.053	–	784.95	–	–
305.8 K, m1 = 0.2422	–	797.4	–	–
305.95 K, m1 = 0.0339	–	783.96	–	–
306.1 K, m1 = 0.3042	–	799.61	–	–
306.15 K, m1 = 0.2192	–	795.21	–	–
306.25 K, m1 = 0.1402	–	791.07	–	–
306.3 K, m1 = 0.1112	–	789.29	–	–
306.35 K, m1 = 0.2003	–	794.29	–	–
306.4 K, m1 = 0.1798	–	793.8	–	–
306.55 K, m1 = 0.0093	–	780.91	–	–
306.65 K, m1 = 0.0059	–	780.15	–	–
306.95 K, m1 = 0.2668	–	797.14	–	–
307.1 K, m1 = 0.0646	–	785.07	–	–
307.3 K, m1 = 0.053	–	783.25	–	–
307.3 K, m1 = 0.1455	–	790.54	–	–
307.35 K, m1 = 0.0855	–	785.26	–	–
307.5 K, m1 = 0.2422	–	795.76	–	–
307.7 K, m1 = 0.0339	–	782.34	–	–
307.7 K, m1 = 0.3042	–	797.95	–	–
307.75 K, m1 = 0.014	–	780.67	–	–
307.8 K, m1 = 0.2192	–	793.51	–	–
307.95 K, m1 = 0.1402	–	789.51	–	–
308.15 K, m1 = 0.0059	0.0369	–	1070.1	–
308.15 K, m1 = 0.0093	0.0592	–	1068.7	–
308.15 K, m1 = 0.018	0.0674	–	1071.5	–
308.15 K, m1 = 0.0339	0.0879	–	–	–
308.15 K, m1 = 0.053	0.103	–	1075.1	–
308.15 K, m1 = 0.0646	0.112	–	–	–
308.15 K, m1 = 0.0855	0.1232	–	–	–
308.15 K, m1 = 0.1024	0.1326	–	–	–
308.15 K, m1 = 0.1402	0.151	–	–	–
308.15 K, m1 = 0.1455	0.1557	–	–	–
308.15 K, m1 = 0.1837	0.1631	–	–	–
308.15 K, m1 = 0.2422	0.1782	–	–	–
308.15 K, m1 = 0.2889	0.1835	–	–	–
